US20260191825A1, “CONTRACEPTIVE COMPOUNDS AND DOSING FOR THE SAME” (YourChoice Therapeutics, Inc., priority 2024, published 2026)
Several values for one entry are separate records, joined by “and”; a condition that tells them apart may be missing. Identical values can stand only once. Entries after “also recorded” stand apart in the source; their conditions may differ. Like-named read-outs stand apart in the source and are kept apart here.

What was measured:
rat micronucleus = assay: In vivo rat micronucleus study; details: highest doses tested
male rats = assay: Rat single dose GLP study (toxicity, sperm parameters); type: in vivo
From the text: (§1) No efficacy was observed after single dose studies in the rat.

[1] = as above; type: in vivo; details: male, in vivo; rat, single dose; highest dose tested
From the text: as §1

[2] = In vitro stability in microsomes (rat); type: in vitro ADME; details: rats
Method: (§2) Respective half-lives (T1/2) were 9.5 hours (human), 23.1 hours (monkeys), >23.1 hours (mice), >23.1 hours (rats), 19.6 hours (rabbits), and >23.1 hours (dogs).

plasma proteins = assay: In vitro plasma protein binding; type: in vitro ADME; details: 1 μM, all species tested (human, monkey, mouse, rat, dog)
rats = assay: Rat repeat dose non-GLP efficacy study (sperm counts, MABEL); type: in vivo
Method: Rat testicular toxicity reversibility characteristics and findings after repeat dosing are discussed in Section 3.1.4.
Rat 35-day repeat dose non-GLP study with a MABEL of 0.75 mg/kg/day.

hERG = hERG (Homo sapiens, UniProt Q12809); assay: hERG GLP safety pharmacology study
male mice = assay: Mouse single dose non-GLP study; type: in vivo
mice [3] = assay: Repeat dose study in mice (sperm counts); type: in vivo, mouse
healthy men = assay: Phase 1b MAD study (Part 1), 28-day dosing, safety and tolerability; type: in vivo, human
Method: (§3) Cohort 4 (receiving 180 mg) is currently being studied.

[4] = In vitro molar extinction coefficient assay; type: physicochemical; details: UV light
From the text: As a result, participants will be advised to minimize exposure to sunlight, wear sunglasses and clothing that minimizes exposure to sunlight, and use sun cream on exposed areas when going outdoors during the 28-Day dosing period and until 10 days post last dose.

CYP2C9 = CYP2C9 (Homo sapiens, UniProt P11712); assay: In vitro CYP inhibition (direct and time-dependent), CYP2C9; type: in vitro ADME
From the text: (§4) However, the likelihood of drug interactions is low since healthy participants who meet eligibility criteria will be enrolled in this Phase 1b/2a clinical trial. An allowance for select concomitant medications may be considered for select participants at the discretion of the investigator and/or sponsor if drug profiles are not anticipated to interact with Compound A. Such medications may include, but will not be limited to paracetamol or ibuprofen as assessed by both the PI and the Sponsor. […] Additional precautions to avoid grapefruit, pomegranates, star fruit, or Seville oranges for 7 days prior to admission, and juices and products containing these fruits for the duration of the study will be taken.

CYP2C8 = CYP2C8 (Homo sapiens, UniProt P10632); assay: In vitro CYP inhibition (direct and time-dependent), CYP2C8; type: in vitro ADME
From the text: as §4

male Sprague Dawley rats = assay: Rat 28-day repeat-dose GLP toxicity study; design: NOAEL increase over the minimum efficacious dose in rats: dose or concentration left out as unconfirmed
[5] = Phase 1a single ascending oral dose study, PK; details: male, human, in vivo, fasted, geometric mean; for AUC(0-t): po
Method: Cohort 1 first received 10 mg, and after a 5-week washout period received 30 mg.

[6] = In vitro stability in microsomes (dog); type: in vitro ADME; details: dogs
Method: as §2

mice [7] = assay: Mating trials with mice; type: in vivo, mouse; details: 10 mg/kg/day for 4 weeks
[8] = Dog single dose cardiovascular study; details: male, Beagle, dog, in vivo
male Beagle dogs = assay: Dog single dose cardiovascular study; details: male Beagle dogs, single dose 2.5, 5 or 25 mg/kg
respiratory system = assay: Rat respiratory safety pharmacology study; type: in vivo; details: male Sprague Dawley rats, single oral doses of 3, 10 or 30 mg/kg
sperm counts = assay: Phase 1b MAD study (Part 1), 28-day dosing, sperm counts; type: in vivo, human; details: men dosed for 4 weeks (28 oral doses) at doses of up to 90 mg
From the text: The main underlying reason provided by experts in the male contraceptive field is the dosing duration. Dosing for 28 days in men only covers approximately one third of the entire cycle from sperm production to sperm release, which takes 85 days in men (71 days for one spermatogenic cycle and 14 days for epididymal transit). […] Therefore, the dosing period will be extended from 28 days to 90 days with the anticipation that this will show the intended effect (reduction in sperm concentration).
as §3

[9] = In vitro stability in microsomes (rabbit); type: in vitro ADME; details: rabbits
Method: as §2

[10] = 15, 30 or 90 mg once daily for 28 days
[11] = rat, 3, 10 or 30 mg/kg/day for 28 days

Sequence of CYP2C8 (P10632 whole entry): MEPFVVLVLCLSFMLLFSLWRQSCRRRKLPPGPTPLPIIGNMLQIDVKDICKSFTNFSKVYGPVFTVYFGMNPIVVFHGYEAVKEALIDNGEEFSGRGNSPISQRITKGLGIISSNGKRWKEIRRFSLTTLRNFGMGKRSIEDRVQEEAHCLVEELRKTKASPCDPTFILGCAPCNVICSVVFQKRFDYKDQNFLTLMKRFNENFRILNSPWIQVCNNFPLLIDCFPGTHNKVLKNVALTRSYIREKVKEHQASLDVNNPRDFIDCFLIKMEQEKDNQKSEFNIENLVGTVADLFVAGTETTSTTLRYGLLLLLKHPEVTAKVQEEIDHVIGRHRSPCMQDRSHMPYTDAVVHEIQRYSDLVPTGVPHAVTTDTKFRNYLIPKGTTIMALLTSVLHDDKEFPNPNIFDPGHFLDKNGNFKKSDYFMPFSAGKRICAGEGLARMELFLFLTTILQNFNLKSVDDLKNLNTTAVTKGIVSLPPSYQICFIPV
Sequence of CYP2C9 (P11712 whole entry): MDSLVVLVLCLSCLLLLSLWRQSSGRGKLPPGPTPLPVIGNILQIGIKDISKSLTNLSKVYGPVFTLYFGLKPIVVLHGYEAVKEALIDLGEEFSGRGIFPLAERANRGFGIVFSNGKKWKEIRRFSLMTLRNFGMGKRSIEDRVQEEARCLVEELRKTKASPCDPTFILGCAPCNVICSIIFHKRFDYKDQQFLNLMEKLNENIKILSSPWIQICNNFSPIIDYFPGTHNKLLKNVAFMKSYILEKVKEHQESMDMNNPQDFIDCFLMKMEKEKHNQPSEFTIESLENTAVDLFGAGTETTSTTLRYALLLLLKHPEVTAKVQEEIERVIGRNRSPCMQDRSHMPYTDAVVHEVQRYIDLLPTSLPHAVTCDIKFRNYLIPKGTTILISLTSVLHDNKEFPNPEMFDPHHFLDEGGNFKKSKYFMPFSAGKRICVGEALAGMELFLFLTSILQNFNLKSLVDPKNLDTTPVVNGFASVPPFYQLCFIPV
Sequence of hERG (Q12809 whole entry): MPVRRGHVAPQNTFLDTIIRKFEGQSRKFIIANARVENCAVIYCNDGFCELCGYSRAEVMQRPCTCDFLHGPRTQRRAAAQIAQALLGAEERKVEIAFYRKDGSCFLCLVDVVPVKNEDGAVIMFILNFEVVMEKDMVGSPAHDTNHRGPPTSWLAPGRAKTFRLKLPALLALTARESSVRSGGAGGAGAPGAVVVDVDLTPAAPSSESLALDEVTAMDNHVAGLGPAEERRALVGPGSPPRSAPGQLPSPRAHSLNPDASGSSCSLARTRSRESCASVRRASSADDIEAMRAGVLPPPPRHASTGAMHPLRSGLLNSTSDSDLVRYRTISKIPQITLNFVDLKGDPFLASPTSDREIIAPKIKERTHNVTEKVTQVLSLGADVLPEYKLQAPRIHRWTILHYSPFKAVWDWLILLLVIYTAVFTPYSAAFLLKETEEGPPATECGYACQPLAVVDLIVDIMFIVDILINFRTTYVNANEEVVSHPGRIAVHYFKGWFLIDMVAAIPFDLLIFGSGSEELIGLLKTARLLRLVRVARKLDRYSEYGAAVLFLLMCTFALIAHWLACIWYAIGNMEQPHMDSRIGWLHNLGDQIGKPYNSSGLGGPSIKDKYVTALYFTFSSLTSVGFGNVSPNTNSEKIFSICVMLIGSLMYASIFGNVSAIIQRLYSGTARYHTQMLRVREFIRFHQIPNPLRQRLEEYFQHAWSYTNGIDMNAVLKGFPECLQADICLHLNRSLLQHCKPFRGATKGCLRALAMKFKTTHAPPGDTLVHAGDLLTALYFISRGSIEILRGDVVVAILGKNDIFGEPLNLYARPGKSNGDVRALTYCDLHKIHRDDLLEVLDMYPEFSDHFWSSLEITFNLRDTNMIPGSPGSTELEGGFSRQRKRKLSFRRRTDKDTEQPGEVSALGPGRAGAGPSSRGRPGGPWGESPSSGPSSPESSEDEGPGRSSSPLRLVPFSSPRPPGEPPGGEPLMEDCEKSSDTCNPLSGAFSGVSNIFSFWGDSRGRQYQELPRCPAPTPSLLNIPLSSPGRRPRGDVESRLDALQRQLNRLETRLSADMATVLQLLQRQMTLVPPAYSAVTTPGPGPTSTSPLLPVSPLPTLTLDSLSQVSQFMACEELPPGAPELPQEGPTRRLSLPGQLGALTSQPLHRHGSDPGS

Question: Which “Genotoxicity: rat micronucleus” value (rat micronucleus) does the source give for `Cc1ccc(C2=CC(C)(C)Oc3ccc(-c4ccc(-c5ccc(C(=O)O)cc5)[nH]4)cc32)cc1` [Compound A] here?
Answer: not genotoxic; also recorded: no genotoxic potential; also recorded: Clean

Question: What about the “Tolerated single dose (highest dose tested)” value (male rats; male rats, GLP study) of the same compound?
Answer: 1,000 mg/kg

Question: What about the “Human dose 60 kg, safety factor 10” value (male rats; male, rat, in vivo, 15 days) of the same compound?
Answer: 967.74 mg

Question: What about the HED (male rats; rat, single dose 1,000 mg/kg) of the same compound?
Answer: 161.3 mg/kg and 161.29 mg/kg

Question: What about the “Impact on sperm parameters after single dose” value (male rats; rats, single doses as high as 1,000 mg/kg, Day 15 post dose) of the same compound?
Answer: no impact on sperm parameters

Question: What about the NOAEL at 15 days [1] of the same compound?
Answer: 1000 mg/kg

Question: And the half-life ([2]; rat, read-out: Half-life (T1/2) in microsomes)?
Answer: > 23.1 h

Question: What about the Compound remaining intact ([2]; 90 minutes) of the same compound?
Answer: 113%

Question: And the “Binding to plasma proteins” value (plasma proteins)?
Answer: at least 99.99%

Question: And the “HED (based on BSA) of MABEL” value (rats; rat)?
Answer: 0.1 mg/kg

Question: And the “HED for 60 kg BW of MABEL” value (rats; rat)?
Answer: 7.2 mg

Question: And the “HED for 80 kg BW of MABEL” value (rats; rat)?
Answer: 9.6 mg

Question: What about the MABEL (rats; rat, 35-day repeat dose non-GLP) of the same compound?
Answer: 0.75 mg/kg/day

Question: And the “Lowest dose with decreases in sperm counts / minimum efficacious dose in rats” value (rats; rat, repeat dose for 36 days)?
Answer: 0.75 mg/kg/day

Question: And the “Recovery from disruption of spermatogenesis” value (rats; rats, 28-day dosing at 0.75 mg/kg/day and 1 mg/kg/day)?
Answer: recover from disruption of spermatogenesis

Question: And the “Main outcomes: hERG” value (hERG)?
Answer: Clean

Question: What about the “Tolerated single dose (highest dose tested)” value (male mice; male mice, non-GLP study) of the same compound?
Answer: 1,000 mg/kg

Question: And the “HED of tolerated single dose” value (male mice; mice, 1,000 mg/kg)?
Answer: 81.3 mg/kg

Question: What about the “Reversibility of antispermatogenic effect” value (mice [3]; mice) of the same compound?
Answer: ≤ 1 spermatogenic cycle

Question: What about the “Lowest dose with decreases in sperm counts” value (mice [3]; mouse, repeat dose for 4 weeks) of the same compound?
Answer: 2.5 mg/kg/day

Question: What about the “AEs classified as possibly related to study treatment” value (healthy men; [10]) of the same compound?
Answer: moderate ventricular triplet, mild skin rash, mild sunburn, mild increased urinary frequency and mild photosensitivity

Question: And the “AEs classified as possibly related to study treatment (number)” value (healthy men; [10])?
Answer: Five

Question: What about the “Serious adverse events (SAEs)” value (healthy men; 15, 30 or 90 mg once daily for 28 days, fasting, to date) of the same compound?
Answer: no serious adverse events

Question: And the Safety and tolerability (healthy men; 28-day oral administration, up to 90 mg, fasted state)?
Answer: safe and well tolerated

Question: And the Phototoxicity potential [4]?
Answer: potential to cause phototoxicity

Question: And the IC50 (CYP2C9; CYP2C9)?
Answer: 14.6 µM

Question: What about the “Time-dependent inhibition (TDI)” value (CYP2C9; CYP2C9, 0.3 to 100 μM) of the same compound?
Answer: no TDI potential

Question: And the IC50 (CYP2C8; CYP2C8)?
Answer: 8.37 µM

Question: What about the “Time-dependent inhibition (TDI)” value (CYP2C8; CYP2C8, 0.3 to 100 μM) of the same compound?
Answer: no TDI potential

Question: And the “NOAEL increase over the minimum efficacious dose in rats” value (male Sprague Dawley rats; rat NOAEL […] mg/kg/day, based on exposure)?
Answer: 40 fold

Question: What about the Prostate weight (male Sprague Dawley rats; [11]) of the same compound?
Answer: unchanged

Question: And the “Recovery from testicular effects” value (male Sprague Dawley rats; [11])?
Answer: very slow

Question: What about the Testosterone levels (male Sprague Dawley rats; rat, 3, 10 or 30 mg/kg/day for 28 days, inferred from prostate weight) of the same compound?
Answer: did not change testosterone levels

Question: And the AUC(0-t) ([5]; 10 mg, single oral dose 10 mg, read-out: AUC0-24)?
Answer: 2380 ng·h/mL

Question: And the AUC(0-t) ([5]; 10 mg, single oral dose 10 mg, read-out: AUC0-last)?
Answer: 8180 ng·h/mL

Question: What about the AUC(0-t) ([5]; 30 mg, single oral dose 30 mg, read-out: AUC0-24) of the same compound?
Answer: 3520 ng·h/mL

Question: And the AUC(0-t) ([5]; 30 mg, single oral dose 30 mg, read-out: AUC0-last)?
Answer: 12400 ng·h/mL

Question: What about the AUC(0-t) ([5]; 90 mg, single oral dose 90 mg, read-out: AUC0-24) of the same compound?
Answer: 8430 ng·h/mL

Question: And the AUC(0-t) ([5]; 90 mg, single oral dose 90 mg, read-out: AUC0-last)?
Answer: 26300 ng·h/mL

Question: And the AUC(0-t) ([5]; 180 mg, single oral dose 180 mg, read-out: AUC0-24)?
Answer: 27300 ng·h/mL

Question: And the AUC(0-t) ([5]; 180 mg, single oral dose 180 mg, read-out: AUC0-last)?
Answer: 73400 ng·h/mL

Question: And the AUC(0-inf) ([5]; single oral dose 10 mg)?
Answer: 9560 ng·h/mL

Question: What about the Cmax ([5]; single oral dose 10 mg) of the same compound?
Answer: 131 ng/mL

Question: And the half-life ([5]; single oral dose 10 mg)?
Answer: 53.5 h

Question: And the AUC(0-inf) ([5]; single oral dose 30 mg)?
Answer: 12900 ng·h/mL

Question: What about the Cmax ([5]; single oral dose 30 mg) of the same compound?
Answer: 200 ng/mL

Question: What about the half-life ([5]; single oral dose 30 mg) of the same compound?
Answer: 61.7 h

Question: What about the AUC(0-inf) ([5]; single oral dose 90 mg) of the same compound?
Answer: 26800 ng·h/mL

Question: What about the Cmax ([5]; single oral dose 90 mg) of the same compound?
Answer: 472 ng/mL

Question: What about the half-life ([5]; single oral dose 90 mg) of the same compound?
Answer: 71.3 h

Question: And the AUC(0-inf) ([5]; single oral dose 180 mg)?
Answer: 75400 ng·h/mL

Question: And the Cmax ([5]; single oral dose 180 mg)?
Answer: 1750 ng/mL

Question: What about the half-life ([5]; single oral dose 180 mg) of the same compound?
Answer: 76.3 h

Question: And the half-life ([6]; dog, read-out: Half-life (T1/2) in microsomes)?
Answer: > 23.1 h

Question: And the Compound remaining intact ([6]; 90 minutes)?
Answer: 101%

Question: And the “Complete recovery of fertility after cessation of dosing” value (mice [7])?
Answer: 6-10 weeks

Question: And the “Infertility (based on the number of viable embryos)” value (mice [7])?
Answer: 99%

Question: What about the NOAEL [8] of the same compound?
Answer: 25 mg/kg

Question: What about the “Main outcomes: dog cardiovascular (effects)” value (male Beagle dogs) of the same compound?
Answer: no effects; also recorded: Clean

Question: And the “Main outcomes: rat respiratory (adverse effects on respiratory system)” value (respiratory system)?
Answer: no adverse effects; also recorded: Clean

Question: What about the “Effect on sperm counts” value (sperm counts) of the same compound?
Answer: not sufficient to decrease sperm counts; also recorded: firm evidence of sperm reduction has not been observed; also recorded: have not been replicated

Question: What about the half-life ([9]; rabbit, read-out: Half-life (T1/2) in microsomes (converted)) of the same compound?
Answer: 19.6 h

Question: And the Compound remaining intact ([9]; 90 minutes)?
Answer: 99%
